Key:
[1] = test system: human airway epithelial cells (HAECs); assay: High-throughput sequencing (HTS) of miRNAs at four stages of differentiation of HAECs; settings: for Modulation (ratio of the level of intensity of expression in log2 in two stages of differentiation) measured by high-throughput sequencing, D7 − D0 / Modulation (ratio of the level of intensity of expression in log2 in two stages of differentiation) measured by high-throughput sequencing, FC − D7 / Modulation (ratio of the level of intensity of expression in log2 in two stages of differentiation) measured by high-throughput sequencing, WD − D0 / Modulation (ratio of the level of intensity of expression in log2 in two stages of differentiation) measured by high-throughput sequencing, WD − FC / Level of intensity of expression in log2 measured by high-throughput sequencing, D0 / Level of intensity of expression in log2 measured by high-throughput sequencing, D7 / Level of intensity of expression in log2 measured by high-throughput sequencing, FC / Level of intensity of expression in log2 measured by high-throughput sequencing, WD: Table VI; for Level of intensity of expression in log2 At the differentiated stage (WD) measured in HTS: healthy human airway epithelial tissue; for Level of intensity of expression in log2 measured by high-throughput sequencing, D0: stage D0; for Level of intensity of expression in log2 measured by high-throughput sequencing, D7: stage D7; for Level of intensity of expression in log2 measured by high-throughput sequencing, FC: stage FC; for Level of intensity of expression in log2 At the differentiated stage (WD) measured in HTS / Level of intensity of expression in log2 measured by high-throughput sequencing, WD: stage WD
Summary of the method: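 Differentiation time course at air-liquid interface: 0, 7, ~14 (first cilia) and ~21 days (fully differentiated). Sequencing counts per strand were normalized to 10^6 sequences and analysed by linear model with empirical Bayesian moderation.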

[2] = test system: human airway epithelial cells (HAECs); assay: Agilent miRNA chips, miRNA expression at four stages of differentiation of HAECs; settings: for Modulation (ratio of the level of intensity of expression in log2 in two stages of differentiation) measured with the Agilent chips, D7 − D0 / Modulation (ratio of the level of intensity of expression in log2 in two stages of differentiation) measured with the Agilent chips, FC − D7 / Modulation (ratio of the level of intensity of expression in log2 in two stages of differentiation) measured with the Agilent chips, WD − D0 / Modulation (ratio of the level of intensity of expression in log2 in two stages of differentiation) measured with the Agilent chips, WD − FC / Level of intensity of expression in log2 measured with the Agilent chips, D0 / Level of intensity of expression in log2 measured with the Agilent chips, D7 / Level of intensity of expression in log2 measured with the Agilent chips, FC / Level of intensity of expression in log2 measured with the Agilent chips, WD: Table VI; for Modulation (ratio of the level of intensity of expression in log2 at two stages of differentiation), FC − D7 / Modulation (ratio of the level of intensity of expression in log2 at two stages of differentiation), WD − FC: Agilent miRNA chips, Table V; for Level of intensity of expression in log2 measured with the Agilent chips, D0: stage D0; for Level of intensity of expression in log2 measured with the Agilent chips, D7: stage D7; for Level of intensity of expression in log2 measured with the Agilent chips, FC: stage FC; for Level of intensity of expression in log2 measured with the Agilent chips, WD: stage WD
Summary of the method: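 RNA from the same patients used for small-RNA sequencing was labelled and hybridized to a Human miRNA Microarray v2 (866 human and 89 human viral miRNAs, covering miRBase v.12.0) with the kit's labelling and hybridization protocol, giving miRNA expression profiles to compare against the sequencing data.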

[3] = test system: basal cells and pyramidal cells of the airway epithelium; assay: miRNA expression in sorted basal cells versus pyramidal cells (ciliated + secretory), HTS and Agilent chips; set-up: species or system human; settings: for Modulation of expression of the miRNAs in pyramidal cells (323(−)) relative to basal cells 323(+): HTS and Agilent chips; for Intensity of the level of expression in log2 in pyramidal cells (323(−)): pyramidal cells (ciliated + secretory)
Summary of the method: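 Sorted basal versus ciliated/mucus-secreting cells; markers CD151 and tissue factor; donors n=3; miRNA by Agilent chip or HTS.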

Substance | Modulation (ratio of the level of intensity of expression in log2 in two stages of differentiation) measured by high-throughput sequencing, D7 − D0 [1] [log2] | Modulation (ratio of the level of intensity of expression in log2 in two stages of differentiation) measured by high-throughput sequencing, FC − D7 [1] [log2] | Modulation (ratio of the level of intensity of expression in log2 in two stages of differentiation) measured by high-throughput sequencing, WD − D0 [1] [log2] | Modulation (ratio of the level of intensity of expression in log2 in two stages of differentiation) measured by high-throughput sequencing, WD − FC [1] [log2] | Level of intensity of expression in log2 At the differentiated stage (WD) measured in HTS [1] [log2] | Level of intensity of expression in log2 measured by high-throughput sequencing, D0 [1] [log2] | Level of intensity of expression in log2 measured by high-throughput sequencing, D7 [1] [log2] | Level of intensity of expression in log2 measured by high-throughput sequencing, FC [1] [log2] | Level of intensity of expression in log2 measured by high-throughput sequencing, WD [1] [log2] | Modulation (ratio of the level of intensity of expression in log2 in two stages of differentiation) measured with the Agilent chips, D7 − D0 [2] [log2] | Modulation (ratio of the level of intensity of expression in log2 at two stages of differentiation), FC − D7 [2] [log2] | Modulation (ratio of the level of intensity of expression in log2 in two stages of differentiation) measured with the Agilent chips, FC − D7 [2] [log2] | Modulation (ratio of the level of intensity of expression in log2 in two stages of differentiation) measured with the Agilent chips, WD − D0 [2] [log2] | Modulation (ratio of the level of intensity of expression in log2 at two stages of differentiation), WD − FC [2] [log2] | Modulation (ratio of the level of intensity of expression in log2 in two stages of differentiation) measured with the Agilent chips, WD − FC [2] [log2] | Level of intensity of expression in log2 measured with the Agilent chips, D0 [2] [log2] | Level of intensity of expression in log2 measured with the Agilent chips, D7 [2] [log2] | Level of intensity of expression in log2 measured with the Agilent chips, FC [2] [log2] | Level of intensity of expression in log2 measured with the Agilent chips, WD [2] [log2] | Modulation of expression of the miRNAs in pyramidal cells (323(−)) relative to basal cells 323(+) [3] | also measured
hsa-miR-23b: human miRNA, SEQ ID No. 26 (AUCACAUUGCCAGGGAUUACC; expressed or natural sequence; listed as Homo sapiens) | 1.30 | −0.17 | 1.29 | 0.16 | 9.35 | 14.06 | 15.35 | 15.18 | 15.35 | 1.96 | −0.27 | −0.27 | 1.72 | 0.04 | 0.04 | 8.92 | 10.88 | 10.61 | 10.64 | −2.23 | Modulation (ratio of the level of intensity of expression in log2 in two stages of differentiation), D7 − D0 ([1]; HTS): 1.30 log2; Modulation (ratio of the level of intensity of expression in log2 in two stages of differentiation), FC − D7 ([1]; HTS): −0.17 log2; Modulation (ratio of the level of intensity of expression in log2 in two stages of differentiation), WD − FC ([1]; HTS): 0.16 log2; Abundance (%), D0 ([1]; HTS, ALI-D0): 3.73%; Abundance (%), D7 ([1]; HTS, ALI-D7): 9.19%; Abundance (%), FC ([1]; HTS, ALI-FC): 7.92%; Abundance (%), WD ([1]; HTS, ALI-WD): 6.72%; Intensity of the level of expression in log2 in basal cells (323(+)) [3]: 9.41 log2; Intensity of the level of expression in log2 in pyramidal cells (323(−)) [3]: 7.18 log2
hsa-miR-25: human miRNA, SEQ ID No. 27 (CAUUGCACUUGUCUCGGUCUGA; expressed or natural sequence; listed as Homo sapiens) | 0.66 | −0.03 | 0.24 | −0.39 | 3.52 | 9.11 | 9.77 | 9.74 | 9.35 | 1.35 | −0.65 | −0.65 | 0.66 | −0.05 | −0.05 | 7.15 | 8.50 | 7.85 | 7.80 | −0.70 | Intensity of the level of expression in log2 in basal cells (323(+)) [3]: 5.40 log2; Intensity of the level of expression in log2 in pyramidal cells (323(−)) [3]: 4.70 log2
hsa-miR-26a: human miRNA, SEQ ID No. 28 (UUCAAGUAAUCCAGGAUAGGCU; expressed or natural sequence; listed as Homo sapiens) | 1.31 | −0.98 | 3.22 | 2.90 | 7.75 | 0.30 | 1.61 | 0.62 | 3.52 | 2.20 | −0.11 | −0.11 | 2.15 | 0.06 | 0.06 | 8.50 | 10.70 | 10.59 | 10.65 | −2.24 | Intensity of the level of expression in log2 in basal cells (323(+)) [3]: 9.92 log2; Intensity of the level of expression in log2 in pyramidal cells (323(−)) [3]: 7.68 log2
hsa-miR-26b: human miRNA, SEQ ID No. 29 (UUCAAGUAAUUCAGGAUAGGU; expressed or natural sequence; listed as Homo sapiens) | 0.09 | 0.05 | 0.92 | 0.78 | 6.81 | 6.84 | 6.93 | 6.97 | 7.75 | 1.94 | −0.37 | −0.37 | 1.65 | 0.08 | 0.08 | 7.97 | 9.91 | 9.54 | 9.62 | −1.47 | Intensity of the level of expression in log2 in basal cells (323(+)) [3]: 8.75 log2; Intensity of the level of expression in log2 in pyramidal cells (323(−)) [3]: 7.28 log2
